From US10098870B2 (JENKEM TECHNOLOGY CO., LTD. (BEIJING), priority 2013, dated 2018)
“Also recorded” adds a separate entry of the source. Where two headings read alike, the source gives them in different places.

Tests used:
[1] = Body weight, survival and tolerance of mice bearing plc/prf/5 (Example 6); type: in vivo, nude mouse; conditions: for Body weight of animal: 25 mg/kg i.v. QD×5, mean ± SE
Source text: Wherein QW×4W represents intravenous injection once a week for 4 weeks, BIW×4W represents intravenous injection […] for 4 weeks, the same below. (2) Experimental Results

[2] = test system: human hepatoma cell Hep3B; assay: Anti-tumor effect on xenograft tumor model of Hep3B in immune deficiency mice (Example 7); conditions: for Tumor volume: mean ± SE
[3] = Body weight, survival and tolerance of mice bearing Hep3B (Example 7); type: in vivo, mouse; conditions: 15 mg/kg i.v. (QD×5)×2W, mean ± SE
[4] = test system: human hepatoma cell plc/prf/5; assay: Anti-tumor effect on xenograft tumor model of plc/prf/5 in nude mice (Example 6); conditions: for Tumor volume: 25 mg/kg i.v. QD×5, mean ± SE
Source text: 10 days later the mean tumor volume was desired to reach about 161 mm^3, the mice with a smaller or larger tumor were removed and the remaining 24 mice were divided into groups randomly according to tumor volume and administrated.
Wherein QW×4W represents intravenous injection once a week for 4 weeks, BIW×4W represents intravenous injection once every two weeks for 4 weeks, the same below.

[5] = in words; cited from earlier work
[6] = test system: H460 human non-small cell lung cancer cells; conditions: 15 mg/kg i.v. BIW×3W; for Tumor volume: mean ± SE
Description: (§1) 5.0×10^6 of H460 tumor cells were suspended in 0.1 ml of PBS, inoculated to each nude mouse at the right shoulder, and there were totally 34 mice inoculated. 8 days later the mean tumor volume was desired to reach about 143 mm^3, the mice with a smaller or larger tumor were removed and the remaining 24 mice were divided into groups randomly according to tumor volume and administrated.

[7] = test system: A549 human non-small cell lung cancer cells; assay: Anti-tumor effect on xenograft tumor model of A549 in nude mice (Example 10);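 as to all read-outs here: nude mice bearing A549 xenografts established by inoculating 1.0×10^7 cells in PBS at the right shoulder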; conditions: 15 mg/kg i.v. BIW×4W; for Tumor volume: mean ± SE
Description: A549 cells were cultured with a monolayer in vitro in RPMI1640 medium supplied with heat-inactivated fetal bovine serum with a volume ratio of 10%, and an incubator at 37° C. with the air containing CO2 with a proportion of 5%. The tumor cells were passaged with digestion by trypsin-EDTA twice a week. The cells in the exponential growth phase were collected, counted, and used for inoculation.
(§2) 1.0×10^7 of A549 tumor cells were suspended in 0.1 ml of PBS, inoculated to each nude mouse at the right shoulder, and there were totally 36 mice inoculated.

[8] = Body weight, survival and tolerance of mice bearing A549 (Example 10);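 as to all read-outs here: nude mice, each given 1.0×10^7 A549 tumor cells in the right shoulder region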; conditions: 15 mg/kg i.v. BIW×4W; for Body weight of animal: mean ± SE
Description: as §2

[9] = test system: Calu-6 human lung cancer cell; assay: Anti-tumor effect on xenograft tumor model of Calu-6 in nude mice (Example 9);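 as to all read-outs here: each nude mouse received 5.0×10^6 Calu-6 cells implanted at the right shoulder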; conditions: 15 mg/kg i.v. BIW×4W; for Tumor volume: mean ± SE
Description: Calu-6 cells were cultured with a monolayer in vitro in MEM medium supplied with heat-inactivated fetal bovine serum with a volume ratio of 10%, and an incubator at 37° C. with the air containing CO2 with a proportion of 5%. The tumor cells were passaged with digestion by trypsin-EDTA twice a week. The cells in the exponential growth phase were collected, counted, and used for inoculation.
(§3) 5.0×10^6 of Calu-6 tumor cells were suspended in 0.1 ml of PBS, inoculated to each nude mouse at the right shoulder, and there were totally 34 mice inoculated.

[10] = Body weight, survival and tolerance of mice bearing Calu-6 (Example 9);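 as to all read-outs here: nude mice bearing Calu-6 tumours, established by implanting 5.0×10^6 cells at the right shoulder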; conditions: 15 mg/kg i.v. BIW×4W; for Body weight of animal: mean ± SE
Description: as §3

[11] = Body weight, survival and tolerance of mice bearing H460 (Example 8); conditions: 15 mg/kg i.v. BIW×3W; for Body weight of animal: mean ± SE
Description: as §1

[12] = acids, bases, physiological conditions; in words; cited from earlier work
[13] = test system: human hepatoma cell plc/prf/5; assay: Anti-tumor effect on subcutaneous transplantation tumor model of plc/prf/5 in NOD/SCID mice (Example 5); type: in vivo, NOD/SCID mouse; conditions: for Tumor volume: 10 mg/kg (counted with rapamycin) i.v. Q2W×2W, mean ± SE
Description: The tumor cells were passaged with digestion by trypsin-EDTA twice a week. The cells in the exponential growth phase were collected, counted, and used for inoculation.
1×10^7 of plc/prf/5 tumor cells were suspended in 0.1 ml of mixed solution (PBS:Matrigel=4:1), inoculated to each NOD/SCID mouse at the right shoulder.
Wherein Q2W×2W represents intravenous injection […] for 2 weeks, the same below. (2) Experimental Results

[14] = 5-FU 25 mg/kg, LPR-2 30 and 45 mg/kg
[15] = 15 mg/kg i.v. (QD×5)×2W, vs physiological saline
[16] = 44th day, 15 mg/kg i.v. (QD×5)×2W, Mean ± SEM

O=c1[nH]cc(F)c(=O)[nH]1 [5-FU, reference compound]
toxicity / tolerance (in words) [1, 14]: so toxic with this dosage that all the animals died; also recorded: a significant toxicity and the whole group of animals died | Body weight of animal ([1]; day 10 after inoculation): 19.6 ± 0.3 g | Body weight of animal ([1]; day 17 after inoculation): 14.7 ± 0.5 g | TGD (to 1,000 mm^3) ([2]; 15 mg/kg i.v. (QD×5)×2W): 6 | T/C (%) RTV [2, 15]: 106% | T/C (%) TW [2, 15]: 109% | anti-tumor effect (in words) ([2]; 5-FU 15 mg/kg, LPR-2 30 and 45 mg/kg): not significant | RTV [2, 16]: 4.53 ± 0.32 | Tumor weight [2, 16]: 1695 ± 289 mg | Tumor volume ([2]; day 16 after inoculation, 15 mg/kg i.v. (QD×5)×2W): 453 ± 66 mm^3 | Tumor volume ([2]; day 20 after inoculation, 15 mg/kg i.v. (QD×5)×2W): 567 ± 84 mm^3 | Tumor volume ([2]; day 23 after inoculation, 15 mg/kg i.v. (QD×5)×2W): 667 ± 105 mm^3 | Tumor volume ([2]; day 27 after inoculation, 15 mg/kg i.v. (QD×5)×2W): 820 ± 149 mm^3 | Tumor volume ([2]; day 30 after inoculation, 15 mg/kg i.v. (QD×5)×2W): 850 ± 150 mm^3 | Tumor volume ([2]; day 34 after inoculation, 15 mg/kg i.v. (QD×5)×2W): 1,123 ± 226 mm^3 | Tumor volume ([2]; day 37 after inoculation, 15 mg/kg i.v. (QD×5)×2W): 1,500 ± 295 mm^3 | Tumor volume ([2]; day 41 after inoculation, 15 mg/kg i.v. (QD×5)×2W): 1,793 ± 342 mm^3 | Tumor volume ([2]; day 44 after inoculation, 15 mg/kg i.v. (QD×5)×2W): 2,114 ± 395 mm^3 | Body weight of animal ([3]; day 20 after inoculation): 19.4 ± 0.4 g | Body weight of animal ([3]; day 23 after inoculation): 19.7 ± 0.3 g | Body weight of animal ([3]; day 27 after inoculation): 18.6 ± 0.3 g | Body weight of animal ([3]; day 30 after inoculation): 18.1 ± 0.3 g | Body weight of animal ([3]; day 34 after inoculation): 18.5 ± 0.4 g | Body weight of animal ([3]; day 37 after inoculation): 18.3 ± 0.3 g | Body weight of animal ([3]; day 41 after inoculation): 18.1 ± 0.3 g | anti-tumor effect (in words) [4, 14]: obvious anti-tumor effect | Tumor volume ([4]; day 10 after inoculation): 170 ± 16 mm^3 | Tumor volume ([4]; day 13 after inoculation): 118 ± 7 mm^3 | Tumor volume ([4]; day 17 after inoculation): 69 ± 4 mm^3

CO[C@H]1C[C@@H]2CC[C@@H](C)[C@@](O)(O2)C(=O)C(=O)N2CCCC[C@H]2C(=O)O[C@H]([C@H](C)C[C@@H]2CC[C@@H](OCCO)[C@H](OC)C2)CC(=O)[C@H](C)/C=C(\C)[C@@H](O)[C@@H](OC)C(=O)[C@H](C)C[C@H](C)/C=C/C=C/C=C/1C [Everolimus, 42-O-(2-hydroxyethyl)-rapamycin]
water-solubility [5]: better water-solubility than that of rapamycin

CC(=O)O[C@H]1C(=O)[C@@]2(C)[C@H]([C@H](OC(=O)c3ccccc3)[C@]3(O)C[C@H](OC(=O)[C@H](O)[C@@H](NC(=O)c4ccccc4)c4ccccc4)C(C)=C1C3(C)C)[C@]1(OC(C)=O)CO[C@@H]1C[C@@H]2O [Paclitaxel, reference compound]
TGD (to 1,000 mm^3) [6]: 7 | T/C (%) RTV ([6]; vs physiological saline): 59% | T/C (%) TW ([6]; vs physiological saline): 66% | RTV ([6]; 29th day, Mean ± SEM): 9.03 ± 0.93 | Tumor weight ([6]; 29th day, Mean ± SEM): 1053 ± 146 mg | Tumor volume ([6]; day 8 after inoculation): 143 ± 15 mm^3 | Tumor volume ([6]; day 12 after inoculation): 295 ± 42 mm^3 | Tumor volume ([6]; day 15 after inoculation): 400 ± 70 mm^3 | Tumor volume ([6]; day 19 after inoculation): 519 ± 97 mm^3 | Tumor volume ([6]; day 22 after inoculation): 680 ± 110 mm^3 | Tumor volume ([6]; day 26 after inoculation): 944 ± 117 mm^3 | Tumor volume ([6]; day 29 after inoculation): 1,281 ± 184 mm^3 | TGD (to 1,000 mm^3) [7]: >7 | T/C (%) RTV ([7]; vs physiological saline): 24% | T/C (%) TW ([7]; vs physiological saline): 19% | RTV ([7]; 52nd day, Mean ± SEM): 2.35 ± 0.16 | Tumor weight ([7]; 52nd day, Mean ± SEM): 253 ± 52 mg | Tumor volume ([7]; day 24 after inoculation): 138 ± 13 mm^3 | Tumor volume ([7]; day 28 after inoculation): 196 ± 24 mm^3 | Tumor volume ([7]; day 31 after inoculation): 230 ± 35 mm^3 | Tumor volume ([7]; day 35 after inoculation): 260 ± 49 mm^3 | Tumor volume ([7]; day 38 after inoculation): 265 ± 48 mm^3 | Tumor volume ([7]; day 42 after inoculation): 294 ± 41 mm^3 | Tumor volume ([7]; day 45 after inoculation): 327 ± 54 mm^3 | Tumor volume ([7]; day 49 after inoculation): 342 ± 54 mm^3 | Tumor volume ([7]; day 52 after inoculation): 331 ± 49 mm^3 | N, number of surviving animals after completion of the treatment ([8]; 6 animals per group): 6 | Body weight of animal ([8]; day 24 after inoculation): 20.6 ± 0.4 g | Body weight of animal ([8]; day 28 after inoculation): 20.8 ± 0.4 g | Body weight of animal ([8]; day 31 after inoculation): 20.6 ± 0.4 g | Body weight of animal ([8]; day 35 after inoculation): 20.8 ± 0.5 g | Body weight of animal ([8]; day 38 after inoculation): 20.8 ± 0.6 g | Body weight of animal ([8]; day 42 after inoculation): 21.6 ± 0.6 g | Body weight of animal ([8]; day 45 after inoculation): 21.3 ± 0.6 g | Body weight of animal ([8]; day 49 after inoculation): 21.3 ± 0.7 g | Body weight of animal ([8]; day 52 after inoculation): 21.8 ± 0.6 g | TGD (to 1,000 mm^3) [9]: >8 | T/C (%) RTV ([9]; vs physiological saline): 16% | T/C (%) TW ([9]; vs physiological saline): 13% | RTV ([9]; 42nd day, Mean ± SEM): 2.31 ± 0.53 | Tumor weight ([9]; 42nd day, Mean ± SEM): 202 ± 52 mg | Tumor volume ([9]; day 14 after inoculation): 138 ± 14 mm^3 | Tumor volume ([9]; day 17 after inoculation): 159 ± 18 mm^3 | Tumor volume ([9]; day 21 after inoculation): 222 ± 23 mm^3 | Tumor volume ([9]; day 24 after inoculation): 219 ± 26 mm^3 | Tumor volume ([9]; day 28 after inoculation): 229 ± 37 mm^3 | Tumor volume ([9]; day 31 after inoculation): 264 ± 53 mm^3 | Tumor volume ([9]; day 35 after inoculation): 281 ± 59 mm^3 | Tumor volume ([9]; day 38 after inoculation): 282 ± 60 mm^3 | Tumor volume ([9]; day 42 after inoculation): 314 ± 72 mm^3 | N, number of surviving animals after completion of the treatment ([10]; 6 animals per group): 6 | Body weight of animal ([10]; day 17 after inoculation): 20.5 ± 0.2 g | Body weight of animal ([10]; day 21 after inoculation): 20.5 ± 0.3 g | Body weight of animal ([10]; day 24 after inoculation): 19.6 ± 0.4 g | Body weight of animal ([10]; day 28 after inoculation): 19.8 ± 0.4 g | Body weight of animal ([10]; day 31 after inoculation): 19.7 ± 0.6 g | Body weight of animal ([10]; day 35 after inoculation): 20.1 ± 0.5 g | Body weight of animal ([10]; day 38 after inoculation): 20.1 ± 0.4 g | N, number of surviving animals after completion of the treatment ([11]; 6 animals per group): 6 | Body weight of animal ([11]; day 8 after inoculation): 20.1 ± 0.4 g | Body weight of animal ([11]; day 12 after inoculation): 19.9 ± 0.3 g | Body weight of animal ([11]; day 15 after inoculation): 19.8 ± 0.2 g | Body weight of animal ([11]; day 19 after inoculation): 19.5 ± 0.2 g | Body weight of animal ([11]; day 22 after inoculation): 18.6 ± 0.3 g

CO[C@H]1C[C@@H]2CC[C@@H](C)[C@@](O)(O2)C(=O)C(=O)N2CCCC[C@H]2C(=O)O[C@H]([C@H](C)C[C@@H]2CC[C@@H](O)[C@H](OC)C2)CC(=O)[C@H](C)/C=C(\C)[C@@H](O)[C@@H](OC)C(=O)[C@H](C)C[C@H](C)/C=C/C=C/C=C/1C [Rapamycin]
stability [12]: degraded even under physiological conditions

Y-type polyethylene glycol (40K)-glutamic acid dipeptide-rapamycin conjugate [LPR-3]
anti-tumor effect (in words) ([13]; 10 mg/kg counted with rapamycin, i.v. Q2W×2W): stronger antitumor activity than that of polyethylene glycol-rapamycin (LPR-1); also recorded: a certain anti-tumor effect | Days for delaying tumor growth (to 1000 mm^3) ([13]; 10 mg/kg i.v. Q2W×2W): >7 days | Tumor control rate T/C (%) ([13]; 10 mg/kg i.v. Q2W×2W, day 38, vs vehicle control): 47% | Tumor volume ([13]; day 24 after inoculation): 358 ± 62 mm^3 | Tumor volume ([13]; day 27 after inoculation): 455 ± 85 mm^3 | Tumor volume ([13]; day 31 after inoculation): 569 ± 100 mm^3 | Tumor volume ([13]; day 34 after inoculation): 754 ± 151 mm^3 | Tumor volume ([13]; day 38 after inoculation): 848 ± 178 mm^3
